Where a SMILES comes first, the peptide text is derived from it. [ ]: non-standard residue; d: D form. The star is where a group is joined. His(τ-Bzl) = N[C@@H](Cc1cn(Cc2ccccc2)cn1)C(=O)O; Nle = CCCC[C@H](N)C(=O)O; NHBn = c1ccc(CN*)cc1; Bn = c1ccc(C*)cc1; OtBu = CC(C)(C)O*; tBu = CC(C)(C)*
Legend:
THP1/BTZ (−100) cells = assay type: cell-based, human; conditions: 72 h
Experimental: (§1) Human monocytic/macrophage THP1 cells (ATTC, Manassas, USA) were cultured in RPMI-1640 medium supplemented with 5% fetal calf serum, 20 mM HEPES, 2 mM glutamine and 100 μg/ml penicillin/ streptomycin at 5% CO2 and 37 °C. Cell cultures were seeded at a density of 3 × 10^5 cells/ml and refreshed twice weekly. […] Some specific experiments also included THP1/BTZ100 cells that were cultured in the absence of BTZ for 6 months (further designated as THP1/BTZ (−100) cells). Mouse thymoma EL4 and human multiple myeloma H929 cells were cultured in RPMI-1640 medium supplemented with 8% fetal calf serum and 100 μg/ml penicillin/streptomycin at 5% CO2 and 37 °C.
(§2) Evaluation of drug sensitivity was carried out as described before. Cells were seeded at an initial density of 1.25 × 10^5 cells/ml in individual wells of a 24-well plate containing up to 50 μl of drug solutions. Inhibition of cell growth was determined after 72 h of incubation at 37 °C by determining the number of viable cells […] using trypan blue exclusion. The drug concentration required to inhibit cell growth by 50% compared to untreated controls was defined as the IC50.

THP1/BTZ100 = assay type: cell-based, human; conditions: 72 h
Experimental: as §1, §2

THP1/WT = assay type: cell-based, human
Experimental: as §1, §2

[1] = tested on: bortezomib-resistant THP1 cell lines; experiment: Growth inhibition assay, cross-resistance; assay type: cell-based, human; conditions: relative to THP1/WT; 72 h growth inhibition
Experimental: as §1, §2

[2] = tested on: caspase-like proteasome activity; experiment: Proteasome activity in THP1 cell extracts (fluorogenic substrate); assay type: biochemical, human; conditions: 1–100 μM, 1 h exposure
Experimental: (§3) Chymotrypsin-like, trypsin-like and caspase-like proteolytic activities of the proteasome were determined in freshly prepared cell lysates as described previously. Five million untreated or bortezomib-exposed THP1 cells were washed 3 times with ice-cold PBS and pelleted by centrifugation (5 min, 12,000 RPM, 4 °C). Cell pellets were then resuspended in an ATP-containing lysis buffer; 10 mM Tris-HCl buffer (pH 7.8) containing 5 mM ATP, 0.5 mM DTT and 5 mM MgCl2, and kept on ice for 10 min. For complete lysis, cells were sonicated (MSE sonicator, amplitude 7, for 3 × 5 s with 20 s time intervals at 4 °C) followed by centrifugation (5 min, 12,000 RPM, 4 °C) to remove cell debris. The supernatant was collected and protein concentration was determined using the Bio-Rad protein assay. […] The release of amc (7-amino-4-methyl-coumarin) was monitored online over a 2-h time period at 37 °C with 5 min intervals. Fluorescence was measured on a Tecan SpectraFluor apparatus (Giessen, The Netherlands) using excitation and emission wavelengths of 360 and 465 nm, respectively. Proteolytic activity was calculated from the slopes of the linear portion of the curves. All results were expressed as percentage relative to untreated THP1/WT cells (100%). […]

[3] = tested on: trypsin-like proteasome activity; experiment: as above; assay type: biochemical, human; conditions: 1–100 μM, 1 h exposure
Experimental: as §3

proteasome β5 subunit = biological target: T1, proteasome β5 subunit (Mus musculus, UniProt O55234); experiment: Proteasome affinity labelling in EL4 cells; assay type: cell-based; conditions: EL4 cells pre-exposed for 2–24 h
T1 construct: Activity probing of constitutive and immunoproteasome β-subunits in EL4 cells; endogenous in cells; host or cells: EL4 mouse thymoma cells
Experimental: Proteasome activity profiling assays were performed as described using a close analog of the BodipyFL probe. Briefly, mouse EL4 thymoma cells were incubated at 37 °C for 2 or 24 h with increasing concentrations of 4A6, followed by a 1 h chase with 500 nM probe. […] Cells were harvested and lysed for 30 min in NP40 lysis buffer (50 mM Tris, pH 7.4, 150 mM NaCl, 1% NP40) at 4°C. The Bradford assay was used to measure protein content. Proteins were denatured by boiling in reducing sample buffer and analyzed by 12% SDS-PAGE using NuPAGE pre-cast gels (Invitrogen). Gels were then scanned for fluorescence emission using a ProXPRESS 2D Proteomic imaging system (Perkin Elmer). Images were analyzed using Totallab analysis software (Nonlinear Dynamics, Newcastle upon Tyne, UK). Sypro staining served as a loading control.

THP1/BTZ200 cells = experiment: Apoptosis assay (Annexin-V/7-AAD flow cytometry); assay type: cell-based, human; conditions: 24 h, 4A6 over 0–25 μM
Experimental: (§4) Induction of apoptosis was analyzed by flow cytometry using APOPTEST™-FITC A700 (VPS Diagnostics, Hoeven, the Netherlands) according to the instructions of the manufacturer. In short, induction of apoptosis was determined after 24 h’ drug exposure. One million cells were harvested and washed 3 times with ice-cold PBS. The cell pellet was incubated for 30 min with 7-Amino-actinomycin D (7-AAD) on ice followed by incubation with Annexin-V according to the instructions of the manufacturer. Annexin-V (early apoptosis) and 7-AAD (late apoptosis) staining was measured by flow cytometry (Beckton & Dickinson, FACScalibur) and analysed using FCSexpress V3 software (Denovo software, Thornhill, Canada).

THP1/WT cells = experiment: Apoptosis assay (Annexin-V/7-AAD flow cytometry); assay type: cell-based, human; conditions: 24 h exposure
Experimental: as §4

[4] = tested on: P-glycoprotein (Pgp/ABCB1); parameters: method as in PMID 11289130; conditions: ref [32]; cited from earlier work

With CCCC[C@H](NC(=O)[C@@H](NC(=O)[C@H](Cc1cn(Cc2ccccc2)cn1)NC(=O)[C@@H](NC(C)=O)[C@@H](C)OC(C)(C)C)[C@@H](C)OCc1ccccc1)C(=O)N[C@@H](CCC(=O)OC(C)(C)C)C(=O)NCC(=O)NCc1ccccc1 [4A6, Ac-Thr(tBu)-His(Bzl)-Thr(Bzl)-Nle-Glu(OtBu)-Gly-Bza] (Ac-T(tBu)[His(τ-Bzl)]T(Bn)[Nle]E(OtBu)G-NHBn) the IC50 (THP1/BTZ (−100) cells) was 10 µM, the IC50 (THP1/BTZ100) was over 25 µM and the “[Resistance Factor] THP1/BTZ100” value (THP1/BTZ100; relative to IC50 in THP1/WT) was 117. The IC50 (THP1/WT; 72 h) was 0.26 ± 0.06 µM, the “[Resistance Factor] THP1/WT” value (THP1/WT; reference value in square brackets) was 1 and the “cross-resistance of bortezomib-resistant cell lines” value [1] was “up to 287 fold”. For the same compound, the “inhibitory effect on caspase-like activity” value [2] was “no inhibitory effect”, the “inhibitory effect on trypsin-like activity” value [3] was “no inhibitory effect” and the “concentration giving complete inhibition of the β5 subunit” value (proteasome β5 subunit) was over 5 µM. For the same compound, the induction of apoptosis (THP1/BTZ200 cells) was “none”, the induction of apoptosis (THP1/WT cells) was “efficient induction of apoptosis” and the “ability to reverse efflux pump MDR (ABCB1)” value [4] was “lacked the ability to reverse efflux pump MDR”. The “substrate of MDR efflux transporter ABCB1” value [4] was “substrate”.

— paper PMC6153520, “Proteasome inhibition and mechanism of resistance to a synthetic, library-based hexapeptide” (Investigational New Drugs, 2018)
